Source: patent publication US20080305978A1, “Cleaning compositions containing a hydrophilic fragrance” (S.C. Johnson & Son, Inc., priority 2007, published 2008)

What was measured:
[1] = Characteristics of fragrance components in words (vapor pressure, water solubility, oxidation); format: physicochemical
Source text: This test evaluated properties of fragrances with different levels of water solubility with regard to their effect on contributing to streaking/blooming.

[2] = Table 5; cited from earlier work

Row | Characteristics: water solubility ([1]; Table 5, in words) | Water Solubility ([1]; Table 6, in words) | Water Solubility ([1]; text b58, in words) | Characteristics: vapor pressure ([1]; Table 5, in words) | Characteristics: oxidation ([1]; Table 5, in words) | SMILES | Vapor Pressure mm/Hg [2] [mm/Hg]
1 | High water | High | high |  |  | CCOC(=O)CC1(C)OCCO1 [Applinal = Fructone, Applinal] | 
2 | (2) Reasonable | Medium |  | (1) Fairly high |  | C=CC(C)CCCC(C)(C)O (stereo not drawn) [Dihydromyrcenol] | 0.7
3 | (3) Low water | Low |  | (1) Low vapor | (2) Easily oxidized | CC(C=O)Cc1ccc(C(C)(C)C)cc1 (stereo not drawn) [Lilial] | 0.004
